47 compounds from PubChem BioAssay AID2124 (Sanford-Burnham Center for Chemical Genomics, 2009) can be followed below.

This assay in a line: GFP-wavelength compound autofluorescence in cells – imaging, high-content imaging, artefact control, dose response (AID 2124).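 On all read-outs here: cells exposed to compound for 48 hours before fixing.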 To be noted: cells, GFP-channel autofluorescence, high-content imaging, at 10 µM; for z-score: stronger effect = higher value.

Records with an inconclusive call do not appear. Active and inactive are the calls of the source. How the calls were made is not given here; tested in MIN6 cells.

As for `CCCCCCc1cc2cc(-c3nnc(-c4ccccc4OC)o3)c(=O)oc2cc1O`, the z-score is -0.21 (inactive) and the cell count was 2630 cells.

`COc1ccc2cc3cc(C(=O)NCc4ccccn4)oc3nc2c1`: the z-score was -0.38 (inactive) and the cell count stood at 3310 cells.

As to `O=S(=O)(Cc1ccc(Cl)cc1)c1ccccc1-c1nnc(-c2ccccc2)o1`, the z-score is -0.39 (inactive) and the cell count stood at 3320 cells.

As for `COCCN1CN(S(=O)(=O)c2ccccc2)c2nc3ccccc3nc21`, the z-score is -0.38 (inactive) and the cell count was determined as 3380 cells.

For the compound `Cc1ccc(-c2cc(-c3ccco3)c3c(N)c(C(=O)NN)oc3n2)cc1`, the z-score is -0.32 (inactive) and the cell count stood at 2700 cells.

For `CN(C)C(=O)CN(c1ccc2c(c1)OCO2)S(C)(=O)=O`, the z-score was -0.33 (inactive) and the cell count was found to be 2880 cells.

Consider `CN(c1cccc(Cl)c1)S(=O)(=O)c1cccc(C(=O)NC2=NCCS2)c1`, for which the z-score was -0.33 (inactive) and the cell count worked out at 3260 cells.

For `CC(=O)c1sc2nc(-c3cccs3)cc(C(F)(F)F)c2c1N`, the z-score was 0.17 and the cell count is 3260 cells.

For `Cc1cc(C)cc(N=Cc2[nH]c3ccc(Br)c(Cl)c3c2O)c1`, the z-score was 0.1 and the cell count is 2820 cells.

With `N#C/C(=C\c1ccc(-c2ccc(C(=O)O)cc2)o1)c1nc2ccccc2[nH]1`, the z-score was -0.29 (inactive) and the cell count came out at 3280 cells.

For `Cc1cc(/C=C2\SC(=S)NC2=O)c(C)n1C1CC1`, the z-score was -0.3 (inactive) and the cell count is 3040 cells.

On to `CCOC(=O)c1nn(-c2ccc(Cl)cc2Cl)c(=N)c(C#N)c1C`, for which the z-score is 0.25 and the cell count worked out at 2790 cells.

Consider `CCOc1ccc2[nH]c(=O)c(CN(CCc3ccccc3)C(=O)N3CCOCC3)cc2c1`, for which the z-score is -0.26 (inactive) and the cell count came to 3100 cells.

Take `CN(C)C(=O)C1C2NC(=S)N(c3cccc(Cl)c3)C1(C)Oc1ccc(Cl)cc12` (centres undefined): the z-score is -0.39 (inactive) and the cell count stood at 3180 cells.

In the case of `N#CC(C#N)=C1C=C2C=C(N3CCCCC3)CCC2CC1` (centres undefined), the z-score was 3 and the cell count worked out at 3020 cells.

Turning to `COC(=O)[C@@H](NC(=O)Nc1cccc(OC)c1)C(C)C`, the z-score is -0.39 (inactive) and the cell count amounted to 3030 cells.

As for `Cc1ccc(NC(=O)CCn2cccc2)cc1Cl`, the z-score is -0.33 (inactive) and the cell count is 3190 cells.

Consider `Cc1ccccc1C(=O)N1CCc2ccccc2C1`, for which the z-score was -0.39 (inactive) and the cell count is 3270 cells.

As for `COC(=O)c1ccc(COc2ccc3c(C)c(C)c(=O)oc3c2)o1`, the z-score is -0.33 (inactive) and the cell count worked out at 3400 cells.

As to `O=C(CCN1C(=O)/C(=C/c2cccs2)SC1=S)NNC(=O)c1cccc(O)c1`, the z-score was -0.33 (inactive) and the cell count was 3190 cells.

In the case of `CCC(C(=O)OCC(=O)Nc1cccc(S(=O)(=O)NC2=NCCCCC2)c1)c1ccccc1` (centres undefined), the z-score was -0.33 (inactive) and the cell count turned out to be 3080 cells.

On to `CCCCn1c(SCC(=O)O)nc2ccccc21`, for which the z-score was -0.33 (inactive) and the cell count was found to be 2830 cells.

Consider `CN1C(=O)CC(N2CCN(Cc3ccc(Cl)cc3)CC2)C1=O` (centres undefined), for which the z-score was -0.39 (inactive) and the cell count came out at 2870 cells.

Turning to `O=C1/C(=C/c2ccc(N3CCCC3)cc2)NC(=S)N1C1CC1`, the z-score is 0.41 and the cell count amounted to 2770 cells.

In the case of `O=C1CCCC(O)=C1C=NCCc1ccccc1`, the z-score is -0.38 (inactive) and the cell count is 3080 cells.

On to `COC(=O)C1=C(N)n2c(s/c(=C\c3cccnc3)c2=O)=C(C(=O)OC)C1c1cccnc1` (centres undefined), for which the z-score was -0.25 (inactive) and the cell count was 2640 cells.

On to `CCOc1cc(C)c(S(=O)(=O)Nc2ccc3cn[nH]c3c2)cc1C`, for which the z-score is -0.33 (inactive) and the cell count was found to be 1550 cells.

Consider `CCN(CC)c1ccc2cc(-c3nnc(-c4ccccc4)o3)c(=O)oc2c1`, for which the z-score is 1.33 and the cell count came out at 3220 cells.

`Cn1c(C(=O)N2CCC(C(=O)N3CCN(Cc4ccc5c(c4)OCO5)CC3)CC2)cc2sccc21`: the z-score is -0.39 (inactive) and the cell count worked out at 2820 cells.

In the case of `O=C(c1cccs1)c1no[n+]([O-])c1C(=O)c1cccs1`, the z-score is -0.31 (inactive) and the cell count was 586 cells.

In the case of `CCCCNc1ccc2c3c(cccc13)C(=O)N(CCCC)C2=O`, the z-score is 3.41 and the cell count was 2720 cells.

Turning to `C=CCNC(=O)c1c2c(nc3ccccc13)-c1ccccc1CC2`, the z-score was -0.39 (inactive) and the cell count was found to be 3270 cells.

Consider `Nc1cccc2c1C(=O)N(C(=O)c1cccc(S(=O)(=O)N3CCCC3)c1)C2=O`, for which the z-score is -0.39 (inactive) and the cell count was 3320 cells.

Take `COc1ccc(N(C(=O)Cc2cccs2)C2C=CS(=O)(=O)C2)cc1` (centres undefined): the z-score was -0.39 (inactive) and the cell count came to 3350 cells.

With `CCN(CC)c1ccc2cc(-c3nc4ccccc4[nH]3)c(=O)oc2c1`, the z-score was 5.37 and the cell count was found to be 1680 cells.

Regarding `CC(NC(=O)/C(C#N)=C1\N=C(NC(=O)c2cccs2)c2ccccc21)c1ccccc1` (centres undefined), the z-score is -0.38 (inactive) and the cell count amounted to 2810 cells.

For the compound `CC(NC(=O)/C(C#N)=C1\N=C(NC(=O)c2ccco2)c2ccccc21)c1ccccc1` (centres undefined), the z-score was -0.32 (inactive) and the cell count came to 2760 cells.

On to `Nc1ccc(-c2nc3nc(N)nc(N)c3nc2-c2ccc(N)cc2)cc1`, for which the z-score was -0.32 (inactive) and the cell count was 2980 cells.

With `CCn1nnc2sc3c(c2c1=O)CCC(C)C3` (centres undefined), the z-score was -0.39 (inactive) and the cell count stood at 3170 cells.

`CC1CCN(C(=O)CNS(=O)(=O)c2ccc(Br)s2)CC1`: the z-score was -0.33 (inactive) and the cell count is 3290 cells.

Turning to `Cc1ccc(C2(C(F)(F)F)N=C3Sc4cc(C)ccc4N3C(=O)N2)cc1` (centres undefined), the z-score was -0.39 (inactive) and the cell count stood at 2940 cells.

On to `COc1ccc(OCC(=O)Nc2ccc(S(=O)(=O)Nc3cc(C)nc(C)n3)cc2)cc1`, for which the z-score was -0.33 (inactive) and the cell count is 3070 cells.

For the compound `O=C(COc1ccccc1)N1CCN=C1c1ccccc1`, the z-score was -0.33 (inactive) and the cell count was 3190 cells.

In the case of `CC(C)C(C)(C#N)NC(=O)CSc1nnc(C(F)(F)F)n1C` (centres undefined), the z-score was -0.33 (inactive) and the cell count worked out at 3010 cells.

`N#C/C(=C\c1ccc(N2CCCCC2)o1)C(=O)Nc1cccc(Br)c1`: the z-score was 3.15 and the cell count was 2780 cells.

`COc1cc(S(=O)(=O)N2CCOCC2)ccc1NC(=O)COC(=O)C12CC3CC(CC(C3)C1)C2`: the z-score is -0.39 (inactive) and the cell count came to 3410 cells.

Consider `CCCS(=O)(=O)N1CCC(C(=O)N2CCOCC2)CC1`, for which the z-score was -0.38 (inactive) and the cell count is 2930 cells.
